Test system: Escherichia coli
Assay: Antimicrobial activity test: rate of inhibition of E. coli proliferation (turbidity)
Format: cell-based
Settings: 16 hours at 37° C.
Experimental: One platinum loop was collected from a stock slant of Escherichia coli, streaked on a standard agar medium (manufactured by Nissui Pharmaceutical Co.) and incubated under aerobic conditions for 16 hours at 37° C., the colonies which grew on the surface of the standard agar medium were collected using a platinum loop, suspended in sterilized physiological saline solution, the turbidity was measured using a spectrophotometer (manufactured by Hitachi Manufacturing Co.) and adjusted to 0.1 (O.D.; 660 nm) and a pre-incubation solution was prepared.
Bactocasitone (manufactured by Difco Laboratory Co.) was dissolved at a concentration of 1% in purified water, the pH was adjusted to 7.0 with 1M sodium hydroxide, the solution was sterilized at 115° C. for 15 minutes and a basal medium (liquid medium) was prepared. […]
The percentages of the rate of inhibition of proliferation are not in weight (same hereinafter).

Trp-Gln-Trp-Arg (WQWR) [Sample No. 7]
inhibitory rate (rate of inhibition of proliferation) (added quantity 0.5 μM): 0% | inhibitory rate (rate of inhibition of proliferation) (added quantity 1 μM): 21% | inhibitory rate (rate of inhibition of proliferation) (added quantity 2 μM): 68% | inhibitory rate (rate of inhibition of proliferation) (added quantity 5 μM): 83% | inhibitory rate (rate of inhibition of proliferation) (added quantity 10 μM): 95% | inhibitory rate (rate of inhibition of proliferation) (added quantity 20 μM): 100% | inhibitory rate (rate of inhibition of proliferation) (added quantity 60 μM): 100% | inhibitory rate (rate of inhibition of proliferation) (added quantity 100 μM): 100% | inhibitory rate (rate of inhibition of proliferation) (added quantity 200 μM): 100%

Source: US5424396A, “Antimicrobial peptide and antimicrobial agent” (Morinaga Milk Industry Co., Ltd., priority 1991, dated 1995)
